The values below come from PubChem BioAssay AID449762 (Southern Research Specialized Biocontainment Screening …, 2010).

Inconclusive results are not listed.

This assay relates to M. tuberculosis H37Rv growth inhibition, 7H9 media. Kind of assay: M. tuberculosis growth inhibition, HTS (AID 449762).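 On all read-outs here: bacterial growth assessed after seven days of incubation.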 As to conditions: for IC90: measured here: IC90 growth inhibition.

Consider `Cc1ccc(CN2CCC(c3cc(-c4ccc(Cl)cc4)n[nH]3)CC2)cc1`, for which the IC50 (usually the concentration that inhibits the measured activity by half) was 11.6 µM and the IC90 (usually the point of the concentration-response curve where the effect stands at 90%) turned out to be 14.8 µM.
As for `Cc1onc(-c2c(F)cccc2Cl)c1C(=O)O/N=C(\N)c1ccc([N+](=O)[O-])o1`, the IC50 was 5.3 µM and the 90% effect concentration (IC90) came out at 11 µM.
As to `CN(C)CCCN(C(=O)c1cc(-c2cccs2)nc2ccccc12)c1nc2ccc(F)cc2s1`, the IC50 was 41 µM and the IC90 is 55.5 µM.
The matching figures for `CN(C)S(=O)(=O)c1cccc(NC(=O)CSc2cccc3cccnc23)c1`: 58.6 µM and 65.1 µM.
Consider `NC(=S)NNc1ccc(Cl)c(Cl)c1`, for which the IC50 is 5.81 µM and the IC90 worked out at 9.42 µM.
Take `CCOC(=O)CSc1ncc(OC)c(Sc2ccc(OC)cc2)n1`: the IC50 was 7.53 µM and the IC90 was 73.4 µM.
In the same order, the values of `O=C(C[n+]1ccc(C(=O)c2ccccc2)cc1)Nc1ccc(C(F)(F)F)cc1` are 21.5 µM and 23.7 µM.
The matching figures for `CC(C)Cc1nc2oc3c(N4CCN(CCO)CC4)ncnc3c2c2c1CCCC2`: 18.3 µM and 26.1 µM.
The matching figures for `NC(=S)N/N=C/c1ccccc1OCCSc1ccc(Cl)cc1`: 45.7 µM and over 100 µM.
For `CC(=O)Nc1ccc(S(=O)(=O)Nc2ccc(N3CCCCC3)cc2)cc1`, the IC50 is 12.4 µM and the IC90 was found to be 13.8 µM.
As to `CC(/C=C/C=C/c1ccccc1)=N\NC(=O)c1cccnc1`, the half-inhibitory concentration (IC50) is 91.8 µM and the IC90 is over 100 µM.
In the same order, the values of `CCOC(=O)CN[C@H]1CCC2C3CC=C4C[C@@H](O)CC[C@]4(C)C3CC[C@@]21C` (stereo partly drawn) are 1.41 µM and 8.37 µM.
Turning to `C/C(Cl)=C\COc1cc(C)nc2c(Br)cccc12`, the IC50 was 19.7 µM and the IC90 was 25.1 µM.
The matching figures for `O=C(O)c1ccc(N2C(=O)/C(=C/c3ccc(-c4ccc([N+](=O)[O-])cc4)o3)C=C2c2ccccc2)cc1`: 17.2 µM and 40.2 µM.
With `CC1CCC(C(C)C)C(OC(=O)Cn2c(-c3ccc(F)cc3)[n+](C)c3ccccc32)C1` (stereo not drawn), the IC50 is 9.08 µM and the IC90 was 13 µM.
The matching figures for `COc1ccc(C(=O)c2c(C(F)(F)F)oc3c2C(=O)c2ccccc2C3=O)cc1OC`: 12 µM and 17.7 µM.
In the same order, the values of `COc1ccc(C2=NN(C(=O)COC(=O)c3ccc(S(C)(=O)=O)c([N+](=O)[O-])c3)C(c3ccco3)C2)cc1` (stereo not drawn) are 6.58 µM and 14.9 µM.
On to `c1ccc(CCNc2ncnc3c2cnn3-c2ccccc2)cc1`, for which the IC50 was 22.1 µM and the 90% effect concentration (IC90) was over 50 µM.
With `O=[N+]([O-])c1cnc(Nc2ccc(Cl)cn2)c([N+](=O)[O-])c1`, the IC50 is 45.8 µM and the concentration for an effect of 90% (IC90) was over 100 µM.
In the same order, the values of `O=C(CCl)NCc1cc(-c2ccc(Cl)cc2)no1` are under 0.2 µM and 1.33 µM.
In the same order, the values of `O=C(CN1CCN(c2nc(-c3ccc(F)cc3)cs2)CC1)NCc1ccc2c(c1)OCO2` are 42.6 µM and 55.8 µM.
In the same order, the values of `Cc1cc2c(cc1C)CSC(c1c(O)ccc3ccccc13)SC2` are 45.3 µM and over 100 µM.
`CC(=O)c1sc(NC(=O)c2cc(=O)c3ccccc3o2)nc1C`: the IC50 is 14.3 µM and the IC90 was over 100 µM.
In the same order, the values of `CCc1ccc2c(c1)/C(=C/C(=O)c1cccs1)C(=O)N2` are 1.06 µM and 3.19 µM.
As to `Cn1nc(-c2ccccc2F)c2cc(C(=O)Nc3ccc4c(c3)OCCO4)sc21`, the half-inhibitory concentration (IC50) is 17.7 µM and the 90% effect concentration (IC90) was 35.5 µM.
In the same order, the values of `CC(=O)c1cccc2c(O)c(C3=Nc4ccccc4C3=O)[nH]c12` are 11.7 µM and 13.2 µM.
With `Cc1ccccc1Nc1nc(N)nc(COC(=O)c2ccc([N+](=O)[O-])o2)n1`, the IC50 is 0.49 µM and the IC90 amounted to 2.46 µM.
In the same order, the values of `COc1ccc(NC(=O)NC(C)C2CC3CCC2C3)cc1` (stereo not drawn) are 23.6 µM and 27.1 µM.
The matching figures for `CNC(CC(=O)c1ccc([N+](=O)[O-])cc1)C(Cl)(Cl)Cl` (stereo not drawn): 2.26 µM and 5.81 µM.
In the same order, the values of `COc1ccc(SN=C2C(C)=CC(=O)C=C2C)cc1` are 11.9 µM and 13.5 µM.
Regarding `COC(=O)COc1ccc(-c2ccccc2)cc1C=O`, the IC50 was 11 µM and the IC90 is 19 µM.
The matching figures for `COc1ccc(C(=O)/C=C/c2cc(OC)c(O)c(OC)c2)c(F)c1`: 34.6 µM and 67 µM.
In the same order, the values of `O=C1C(SCCO)=C(SCCO)C(=O)c2ccccc21` are 6.06 µM and 6.83 µM.
`O=C1CCC(=O)N1CNc1ccc(Oc2ccccc2)cc1` had an IC90 of over 100 µM.
Turning to `CCOC(=O)c1ccc(N=C2S/C(=C\c3cc(C)n(-c4cccnc4)c3C)C(=O)N2C)cc1`, the half-inhibitory concentration (IC50) is 96.6 µM and the IC90 was over 100 µM.
In the same order, the values of `CC(C)COCc1ccc(O)c2ncccc12` are 1.64 µM and 2.35 µM.
With `O=c1oc2ccccc2c(O)c1/C=C1\C=Nc2ccccc21`, the IC50 was 16.6 µM and the 90% effect concentration (IC90) worked out at 39.8 µM.
The matching figures for `O=C(/C=C/c1cccnc1)c1cccc(O)c1`: 6.48 µM and 14.8 µM.
`O=C1Nc2ccc(Br)cc2C12NNc1ccccc1O2` (stereo not drawn): the half-inhibitory concentration (IC50) was 23.3 µM and the concentration for an effect of 90% (IC90) is 43.6 µM.
As for `Cn1nnnc1Sc1ncnc2scc(-c3cc4ccccc4o3)c12`, the IC50 was 0.78 µM and the concentration for an effect of 90% (IC90) was determined as 7 µM.
In the same order, the values of `Cn1nc(-c2ccccn2)nc2c(=O)n(C)c(=O)nc1-2` are 9.04 µM and 14.5 µM.
As to `Cc1ccc(-n2nc3c(N4CCC(C(=O)NCc5ccccc5C)CC4)nnc(C)c3c2C)cc1`, the 50% inhibitory concentration (IC50) was 46.9 µM and the 90% effect concentration (IC90) turned out to be 69 µM.
The matching figures for `CN1OC(COC(=O)c2ccc(Cl)cc2Cl)CC1c1ccccc1` (stereo not drawn): 2.43 µM and 16.3 µM.
With `COc1ccc(-c2ccnc3nc(N4CCN(c5ccccc5)CC4)nn23)cc1`, the half-maximal inhibitory concentration (IC50) is 36.4 µM and the IC90 is 47.9 µM.
Take `CC(C)(C)c1ccc(OCCCC(=O)NC2=NCCS2)cc1`: the IC50 was 23 µM and the IC90 was determined as 60.6 µM.
The compound `C(=C\c1ccccc1)/C=N/Nc1nc2ccccc2s1` displayed an IC90 of over 100 µM.
On the same count and under the same terms, as for `Nc1ccc(N=Nc2ccccc2)c(N)n1`, the figure is over 100 µM.
`Cc1c(CCC(=O)NCCCn2ccnc2)c(=O)oc2c(C)c3occ(C(C)(C)C)c3cc12`: the IC50 was 23.1 µM and the IC90 is 36.3 µM.
As to `Cn1ncnc2c(=O)n(C)c(=O)nc1-2`, the IC50 was 1.66 µM and the IC90 was 2.62 µM.
For the compound `COc1ccc(C(=O)C[n+]2ccc3c(c2)nc(-c2cc(OC)c(OC)cc2OC)n3C)cc1`, the half-maximal inhibitory concentration (IC50) is 10.5 µM and the concentration for an effect of 90% (IC90) is 13.4 µM.
The matching figures for `CC1CN(C(=S)SCC(=O)c2ccc([N+](=O)[O-])cc2)CC(C)O1` (stereo not drawn): 27 µM and over 100 µM.
The matching figures for `COc1cccc(NC(=O)C2CCN(Cc3cnn(-c4ccccc4)c3-n3cccc3)CC2)c1`: 48.4 µM and 56.2 µM.
In the same order, the values of `Cc1cc(C)c2oc(-c3ccc(C)c(NC(=S)NC(=O)/C=C/c4ccco4)c3)nc2c1` are 59.8 µM and over 100 µM.
`Cc1cc(C)c2c(CN3CCN(Cc4ccccc4)CC3)cc(=O)oc2c1C`: the 50% inhibitory concentration (IC50) is 49.1 µM and the IC90 came out at 54.6 µM.
The matching figures for `CC1(C)CC(=O)C2=C(C1)NC(Nc1nc3ccccc3o1)=NC2c1ccccn1` (stereo not drawn): under 0.2 µM and 2.31 µM.
In the same order, the values of `C/C(=N\Nc1nc2c(s1)CCCC2)c1ccccc1` are 18.6 µM and 34.4 µM.
In the same order, the values of `COc1ccc(OCCCC(=O)OC(C)C(=O)Nc2ccccc2[N+](=O)[O-])cc1` (stereo not drawn) are 15.4 µM and over 100 µM.
For `CCOC(=O)c1csc(-c2snnc2C)n1`, the 50% inhibitory concentration (IC50) was 21.4 µM and the concentration for an effect of 90% (IC90) turned out to be 52 µM.
Consider `CCOc1ccc(CN(C)CC(O)COC(c2ccc(OC)cc2)c2ccc(OC)cc2)cc1` (stereo not drawn), for which the IC50 was 10.5 µM and the IC90 stood at 13.4 µM.
The matching figures for `O=C(c1ccc(Br)cc1)C(CN1CCOCC1)c1ccccc1` (stereo not drawn): 4.73 µM and 9.41 µM.
Turning to `COc1cc(NC(=O)c2cnc(N)s2)cc(C(=O)Nc2cccc(C(F)(F)F)c2)c1`, the IC50 was 52 µM and the 90% effect concentration (IC90) turned out to be 78.8 µM.
`O=C(/C=C/c1ccco1)Nc1cccc(-c2nc3ccccc3[nH]2)c1`: the IC50 was 78.5 µM and the IC90 is over 100 µM.
As to `CC(C)=CCOc1ccc([C@@H]2COc3c(ccc4c3C=CC(C)(C)O4)C2)c(O)c1`, the half-maximal inhibitory concentration (IC50) is 4.75 µM and the IC90 turned out to be 7.77 µM.
`O=C(CCl)NCCCCCCCCCNC(=O)CCl`: the IC50 was under 0.2 µM and the IC90 is under 0.2 µM.
Consider `CCCCCCCNC1=CC(=O)CC(c2ccccc2)C1` (stereo not drawn), for which the half-inhibitory concentration (IC50) is 41.6 µM and the 90% effect concentration (IC90) was 53.9 µM.
Turning to `COc1ccc(C2c3[nH]c4ccccc4c3CCN2Cc2cccn2-c2ncccn2)cc1C` (stereo not drawn), the half-inhibitory concentration (IC50) was 25.2 µM and the IC90 was determined as 28.9 µM.
In the same order, the values of `CC(C)(C)NC(=O)C(=O)NNC(=O)c1ccc(C(C)(C)C)cc1` are 5.71 µM and 17.6 µM.
In the same order, the values of `O=C(C/C=N\OCc1ccc([N+](=O)[O-])cc1)Nc1ccc(F)cc1F` are 20.3 µM and 98.4 µM.
For the compound `CCCNc1nc(-c2cc(C(=O)Nc3ccccc3)on2)cc(C(C)C)n1`, the IC50 was 35 µM and the IC90 is 59.3 µM.
For the compound `COc1cc(C)ccc1S(=O)(=O)N1CCN(C23CC4CC(CC(C4)C2)C3)CC1`, the IC50 is 28.8 µM and the 90% effect concentration (IC90) amounted to 44 µM.
In the same order, the values of `COc1cc(OC)nc(Oc2ccccc2C(=O)Oc2ccc(Cl)cc2)n1` are 68.5 µM and over 100 µM.
In the same order, the values of `CCOC(=O)c1c(C)[nH]c(N=Nc2ccc(OC)cc2)c1C` are 1.71 µM and 5.55 µM.
The matching figures for `CCN1CCN(Cc2ccc(NC(=O)c3cc(NC(=O)c4cncc(-c5cccs5)c4)cc(OC)c3)cc2C(F)(F)F)CC1`: 10.2 µM and 14.6 µM.
